Assay: xn = mol fraction of the nth substance listed
Conditions: Gas, Burnett expansion method

FC(C(F)(F)F)C(F)(F)F [1,1,1,2,3,3,3-heptafluoropropane] + FCF
Conditions | mass density [kg/m3]
360 K, 221.36 kPa, x2 = 0.5155 | 8.234
360 K, 239.67 kPa, x2 = 0.2648 | 11.408
360 K, 243.21 kPa, x2 = 0.7809 | 6.433
360 K, 303.15 kPa, x2 = 0.5155 | 11.36
360 K, 327.36 kPa, x2 = 0.2648 | 15.74
360 K, 333.32 kPa, x2 = 0.7809 | 8.875
360 K, 414 kPa, x2 = 0.5155 | 15.673
360 K, 445.38 kPa, x2 = 0.2648 | 21.715
360 K, 455.62 kPa, x2 = 0.7809 | 12.244
360 K, 563.21 kPa, x2 = 0.5155 | 21.622
360 K, 602.72 kPa, x2 = 0.2648 | 29.96
360 K, 620.87 kPa, x2 = 0.7809 | 16.892
360 K, 761.94 kPa, x2 = 0.5155 | 29.83
360 K, 809.48 kPa, x2 = 0.2648 | 41.334
360 K, 842.09 kPa, x2 = 0.7809 | 23.305
360 K, 1023.1 kPa, x2 = 0.5155 | 41.153
360 K, 1075.4 kPa, x2 = 0.2648 | 57.027
360 K, 1134.1 kPa, x2 = 0.7809 | 32.152
360 K, 1359.1 kPa, x2 = 0.5155 | 56.775
360 K, 1407.1 kPa, x2 = 0.2648 | 78.678
360 K, 1513.7 kPa, x2 = 0.7809 | 44.316
360 K, 1778.5 kPa, x2 = 0.5155 | 78.326
360 K, 1801.2 kPa, x2 = 0.2648 | 108.549
360 K, 1995.5 kPa, x2 = 0.7809 | 61.139
360 K, 2234.4 kPa, x2 = 0.2648 | 149.76
360 K, 2279 kPa, x2 = 0.5155 | 108.059
360 K, 2584.7 kPa, x2 = 0.7809 | 84.349
360 K, 2647.8 kPa, x2 = 0.2648 | 206.618
360 K, 2834.8 kPa, x2 = 0.5155 | 149.078
370 K, 180 kPa, x2 = 0.2648 | 8.265
370 K, 227.73 kPa, x2 = 0.5155 | 8.23
370 K, 246.7 kPa, x2 = 0.2648 | 11.403
370 K, 250.16 kPa, x2 = 0.7809 | 6.429
370 K, 312.04 kPa, x2 = 0.5155 | 11.355
370 K, 337.19 kPa, x2 = 0.2648 | 15.732
370 K, 343.02 kPa, x2 = 0.7809 | 8.87
370 K, 426.48 kPa, x2 = 0.5155 | 15.665
370 K, 459.23 kPa, x2 = 0.2648 | 21.704
370 K, 469.2 kPa, x2 = 0.7809 | 12.238
370 K, 580.8 kPa, x2 = 0.5155 | 21.611
370 K, 622.4 kPa, x2 = 0.2648 | 29.945
370 K, 639.98 kPa, x2 = 0.7809 | 16.884
370 K, 786.9 kPa, x2 = 0.5155 | 29.815
370 K, 837.7 kPa, x2 = 0.2648 | 41.314
370 K, 869.16 kPa, x2 = 0.7809 | 23.293
370 K, 1058.9 kPa, x2 = 0.5155 | 41.133
370 K, 1116.3 kPa, x2 = 0.2648 | 56.999
370 K, 1172.8 kPa, x2 = 0.7809 | 32.136
370 K, 1411 kPa, x2 = 0.5155 | 56.746
370 K, 1467.3 kPa, x2 = 0.2648 | 78.639
370 K, 1569.4 kPa, x2 = 0.7809 | 44.294
370 K, 1854.7 kPa, x2 = 0.5155 | 78.287
370 K, 1891.2 kPa, x2 = 0.2648 | 108.495
370 K, 2076.9 kPa, x2 = 0.7809 | 61.109
370 K, 2371.1 kPa, x2 = 0.2648 | 149.686
370 K, 2392.6 kPa, x2 = 0.5155 | 108.005
370 K, 2705.2 kPa, x2 = 0.7809 | 84.308
370 K, 2859.2 kPa, x2 = 0.2648 | 206.516
370 K, 3006.5 kPa, x2 = 0.5155 | 149.004
390 K, 190.02 kPa, x2 = 0.2648 | 8.257
390 K, 240.4 kPa, x2 = 0.5155 | 8.222
390 K, 260.65 kPa, x2 = 0.2648 | 11.392
390 K, 264.02 kPa, x2 = 0.7809 | 6.423
390 K, 329.74 kPa, x2 = 0.5155 | 11.344
390 K, 356.74 kPa, x2 = 0.2648 | 15.716
390 K, 362.31 kPa, x2 = 0.7809 | 8.862
390 K, 451.27 kPa, x2 = 0.5155 | 15.65
390 K, 486.71 kPa, x2 = 0.2648 | 21.683
390 K, 496.17 kPa, x2 = 0.7809 | 12.226
390 K, 615.63 kPa, x2 = 0.5155 | 21.59
390 K, 661.34 kPa, x2 = 0.2648 | 29.916
390 K, 677.89 kPa, x2 = 0.7809 | 16.867
390 K, 836.32 kPa, x2 = 0.5155 | 29.786
390 K, 893.34 kPa, x2 = 0.2648 | 41.274
390 K, 922.76 kPa, x2 = 0.7809 | 23.271
390 K, 1129.5 kPa, x2 = 0.5155 | 41.093
390 K, 1196.7 kPa, x2 = 0.2648 | 56.943
390 K, 1249.8 kPa, x2 = 0.7809 | 32.105
390 K, 1513 kPa, x2 = 0.5155 | 56.692
390 K, 1584.8 kPa, x2 = 0.2648 | 78.563
390 K, 1679.1 kPa, x2 = 0.7809 | 44.251
390 K, 2003.7 kPa, x2 = 0.5155 | 78.212
390 K, 2065.6 kPa, x2 = 0.2648 | 108.39
390 K, 2236.4 kPa, x2 = 0.7809 | 61.05
390 K, 2613.6 kPa, x2 = 0.5155 | 107.901
390 K, 2634 kPa, x2 = 0.2648 | 149.541
390 K, 2940 kPa, x2 = 0.7809 | 84.226
390 K, 3260.4 kPa, x2 = 0.2648 | 206.316
390 K, 3338.4 kPa, x2 = 0.5155 | 148.86
410 K, 105.73 kPa, x2 = 0.2648 | 4.333
410 K, 106.47 kPa, x2 = 0.7809 | 2.443
410 K, 133.75 kPa, x2 = 0.5155 | 4.316
410 K, 145.48 kPa, x2 = 0.2648 | 5.979
410 K, 146.65 kPa, x2 = 0.7809 | 3.371
410 K, 184.04 kPa, x2 = 0.5155 | 5.954
410 K, 199.99 kPa, x2 = 0.2648 | 8.248
410 K, 201.86 kPa, x2 = 0.7809 | 4.651
410 K, 253.05 kPa, x2 = 0.5155 | 8.214
410 K, 274.54 kPa, x2 = 0.2648 | 11.38
410 K, 277.79 kPa, x2 = 0.7809 | 6.417
410 K, 347.32 kPa, x2 = 0.5155 | 11.332
410 K, 376.14 kPa, x2 = 0.2648 | 15.701
410 K, 381.49 kPa, x2 = 0.7809 | 8.853
410 K, 475.89 kPa, x2 = 0.5155 | 15.634
410 K, 513.94 kPa, x2 = 0.2648 | 21.661
410 K, 522.95 kPa, x2 = 0.7809 | 12.214
410 K, 650.2 kPa, x2 = 0.5155 | 21.568
410 K, 699.84 kPa, x2 = 0.2648 | 29.885
410 K, 715.45 kPa, x2 = 0.7809 | 16.85
410 K, 885.1 kPa, x2 = 0.5155 | 29.756
410 K, 948.18 kPa, x2 = 0.2648 | 41.232
410 K, 975.71 kPa, x2 = 0.7809 | 23.247
410 K, 1199.1 kPa, x2 = 0.5155 | 41.051
410 K, 1275.5 kPa, x2 = 0.2648 | 56.886
410 K, 1325.1 kPa, x2 = 0.7809 | 32.073
410 K, 1613 kPa, x2 = 0.5155 | 56.634
410 K, 1699.6 kPa, x2 = 0.2648 | 78.483
410 K, 1786.7 kPa, x2 = 0.7809 | 44.206
410 K, 2149.2 kPa, x2 = 0.5155 | 78.132
410 K, 2235 kPa, x2 = 0.2648 | 108.28
410 K, 2392.4 kPa, x2 = 0.7809 | 60.988
410 K, 2828 kPa, x2 = 0.5155 | 107.791
410 K, 2887.1 kPa, x2 = 0.2648 | 149.389
410 K, 3168.3 kPa, x2 = 0.7809 | 84.141
410 K, 3641.6 kPa, x2 = 0.2648 | 206.107
410 K, 3658.2 kPa, x2 = 0.5155 | 148.709

— the NIST ThermoML archive (doi:10.1021/je7000667)
